Measured values from patent publication US6030993A, “2-hydroxypropionic acid derivative and its manufacturing method” (Sang Sup JEW, priority 1996, dated 2000).
“Also recorded” adds a separate entry of the source.

Test system: not given
Test: not given
Settings: phase II clinical trials, discontinued; cited from earlier work

| SMILES | side effects associated with prolonged administration |
| --- | --- |
| CCOC(=O)[C@@]1(CCCCCCOc2ccc(Cl)cc2)CO1 [etomoxir] | enlarged heart; also recorded: toxicity in the liver |

Test system: diabetes-induced Sprague-Dawley rats
Test: Blood glucose lowering effect in streptozotocin diabetes-induced rats, oral
Format: in vivo
Settings: Rattus norvegicus; STZ (45 mg/kg) diabetic male Sprague-Dawley rats; 50 mg/kg oral in 30% ethanol; smallest blood glucose of 90, 120 and 180 min; read-out: Blood glucose lowering rate
Description: Two groups of male diabetes-induced Sprague-Dawley rats (each of 4-5 rats weighing about 250 g per group) were used for this experiment. 45 mg/kg of streptozotocin (STZ) dissolved in 0.1M citrate buffer (pH 4.5, 0-4° C.) was injected to the tail vein of fasted rats for 1 day. After elapse of 7 days, their blood glucose concentration were measured and animals having the blood serum concentration of more than 350 mg/dl were used as diabetes-induced rats for this experiment. The rats were intravenously administered at a daily dose of 1 ml/kg, while the normal control group received equal volume of 0.1M citrate buffer.
7 days after being treated with streptozotocin, diabetes-induced rats were orally administered at a dose of 50 mg/kg of the compounds prepared by the procedures of Examples 1-13. Then, at time intervals of 90 mins, 120 mins and 180 mins, their blood glucose concentrations were measured and the smallest values were taken. The compounds of Example 1-13 were dissolved in 30% ethanol until its final concentration became 2 ml/kg, while the control group was orally received equal volume of 30% ethanol.
Significant difference between two groups was determined by ANOVA test, together with a post hoc test using Newman-Keuls test.

| SMILES | inhibition in vivo at 50 mg/kg [%] |
| --- | --- |
| CCOC(=O)C(O)(CO)CCCCCCOCc1ccc(Cl)s1 (stereo not drawn) [Example 7, Ethyl-2,3-dihydroxy-2-[6-(5-chloro-2-thiophenmethoxy)hexyl]propionate] | 19.2 |
| CCOC(=O)C(O)(CO)CCCCCCOCc1sccc1Cl (stereo not drawn) [Example 8, Ethyl-2,3-dihydroxy-2-[6-(3-chloro-2-thiophenmethoxy)hexyl]propionate] | 26 |
| CCOC(=O)C(O)(CBr)CCCCCCOCCc1cccs1 (stereo not drawn) [Example 11, Ethyl 2-hydroxy-3-bromo-2-[6-(2-thiophenethoxy)hexyl]propionate] | 13 |
| CCOC(=O)C(O)(CO)CCCCCCOCc1ccc(C)o1 (stereo not drawn) [Example 5, Ethyl-2,3-dihydroxy-2-[6-(5-methyl-2-furanmethoxy)hexyl]propionate] | 22 |
| CCOC(=O)C(O)(CBr)CCCCCCOCc1ccc(Cl)s1 (stereo not drawn) [Example 12, Ethyl 2-hydroxy-3-bromo-2-[6-(5-chlorothiophenemethoxy)hexyl]propionate] | 26.4 |
| CCOC(=O)C(O)(CBr)CCCCCCOc1ccc(Cl)cc1 (stereo not drawn) [Example 9] | 22 |
| CCOC(=O)C(O)(CBr)CCCCCCOCc1sccc1Cl (stereo not drawn) [Example 13, Ethyl 2-hydroxy-3-bromo-2-[6-(3-chlorothiophenemethoxy)hexyl]propionate] | 19.3 |
| CCOC(=O)C(O)(CO)CCCCCCOc1ccc(Cl)cc1 (stereo not drawn) [Example 3, Ethyl-2,3-dihydroxy-2-[6-(4-chlorophenoxy)hexyl]propionate] | 23 |
| CCOC(=O)C(O)(CCCCCCOCc1ccccc1)COS(=O)(=O)c1ccc(C)cc1 (stereo not drawn) [Example 10, Ethyl 2-hydroxy-3-(4-methylbenzenesulfoxy)-2-[6-benzoxyhexyl]propionate] | 34.1 |
| CCOC(=O)C(O)(CO)CCCCCCOCc1ccc(OC)cc1 (stereo not drawn) [Example 2, Ethyl-2,3-dihydroxy-2-[6-(4-methoxybenzoxy)hexyl]propionate] | 10 |
| CCOC(=O)C(O)(CO)CCCCCCOCc1ccccc1 (stereo not drawn) [Example 1, Ethyl-2,3-dihydroxy-2-(6-benzoxy)hexylpropionate] | 38.5 |
| CCOC(=O)C(O)(CO)CCCCCCOCCc1cccs1 (stereo not drawn) [Example 6, Ethyl-2,3-dihydroxy-2-[6-(2-thiophenethoxy)hexyl]propionate] | 1.2 |

Same assay, conditions: STZ (45 mg/kg) diabetic male Sprague-Dawley rats; 50 mg/kg oral in 30% ethanol; smallest blood glucose of 90, 120 and 180 min

| SMILES | Blood glucose lowering rate [%] |
| --- | --- |
| CCOC(=O)C(O)(CO)CCCCCCn1nc(C)cc1C (stereo not drawn) [Example 4, Ethyl-2,3-dihydroxy-2-[6-(3,5-dimethylpyrazol)hexyl]propionate] | 19.8 |

Test system: not listed separately
Test: Acute oral toxicity test in rats
Settings: rat, in vivo, mature rats 200-250 g, dissolved in ethylacetate
Description: The acute toxicity tests on rats were performed using the compound prepared by the procedure of the Example 1. Mature rats weighing 200-250 g were orally given the compound of the Example 1 dissolved in ethylacetate in parallel with its gradually increasing concentration. Then, LD50 was calculated by number of killed animals.

| SMILES | LD50 [mg/kg] |
| --- | --- |
| CCOC(=O)C(O)(CO)CCCCCCOCc1ccccc1 (stereo not drawn) [Example 1, Ethyl-2,3-dihydroxy-2-(6-benzoxy)hexylpropionate] | 482 |
